Data published in paper PMC11784183, “Identification of an antibiotic from an HTS targeting EF-Tu:tRNA interaction: a prospective topical treatment for MRSA skin infections” (Applied and Environmental Microbiology, 2024).
Converted amounts (≈) assume the structure as drawn. Where two headings read alike, the source gives them in different places.

Columns and labels:
in vivo = conditions: male, C57B6, mouse, ip, 10 mg/kg
[1] = test system: S. aureus USA300 subcutaneous infection; experiment: Mouse skin infection model, topical ointment; assay type: in vivo, mice; conditions: topical ointment daily
S. haemolyticus = experiment: MIC testing by broth microdilution; assay type: cell-based; conditions: Staphylococcus haemolyticus; BK strain 21148
S. caprae = experiment: MIC testing by broth microdilution; assay type: cell-based; conditions: BK strain 22945
[2] = test system: ribosomal translation in vitro (PURExpress); experiment: Purified in vitro translation assay (PURExpress); assay type: biochemical; conditions: highest concentration tested
Excerpt: (A) Coomassie blue staining of sodium dodecyl sulfate polyacrylamide gel electrophoresis (SDS-PAGE) following in vitro translation with the PURExpress translation kit (New England Biolabs). The protein synthesized (Dihydrofolate reductase) in the reaction is shown in the small rectangles superimposed on the gel. (B) Quantification using a BioRad gel scanner and software provided with this scanner.
PURExpress in vitro purified ribosomal translation kit (New England Biolabs) was used. Biochemical protocols used were as described by the manufacturer.

[3] = test system: non-aureus staphylococcal strains (14 species); experiment: MIC testing by broth microdilution, panel of non-aureus staphylococcal strains; assay type: cell-based, Staphylococcus spp.; conditions: Staphylococcus; for 18 of 23 other Staphylococcal strains; read-out: MIC90 and MIC50
S. saprophyticus = experiment: MIC testing by broth microdilution; assay type: cell-based
[4] = assay type: in vitro ADME, human
Method: (§1) Briefly, each reaction mixture (110 µL) consisted of a test article (1 µM), mix gender human, male Sprague Dawley rat or male CD-1 mouse microsomal fractions (0.5 mg/mL), and NADPH regenerating system in phosphate buffer at pH 7.4. Samples were incubated in 384-well plates at 37°C for 0, 5, 10, 15, 30, and 60 min. Sample analysis and half-life calculations were performed using a previously described method ([22]). The three controls used were Buspirone (short half-life), Loperamide (moderate half-life), and Antipyrine (long half-life).
(§2) Categories were defined as follows: unstable, t1/2 < 30 min; stable, t1/2 > 30 min.

S. cohnii = experiment: MIC testing by broth microdilution; assay type: cell-based; conditions: Staphylococcus cohnii; BK strain 22939
S. gallinarum = experiment: MIC testing by broth microdilution; assay type: cell-based; conditions: BK strain 26189
S. aureus = experiment: Drug susceptibility assay (96-well, MIC); assay type: cell-based; conditions: Staphylococcus aureus
[5] = mouse, in vivo, ip, 10 mg/kg
S. simulans = experiment: MIC testing by broth microdilution; assay type: cell-based; conditions: Staphylococcus simulans; BK strain 26201
S. pseudintermedius = experiment: MIC testing by broth microdilution; assay type: cell-based
B. subtilis = experiment: Inhibition of bacterial growth in liquid culture; assay type: cell-based; conditions: Bacillus subtilis
Method: (§3) Strains and reagents were the same as in the zone-inhibition assay (above). […] The culture was diluted again 1/500 in 1 mL of fresh media with the presence of increasing concentrations of tested compound or 1% DMSO as a control.

[6] = test system: K. pneumoniae (ATCC 43816); experiment: Drug susceptibility assay (96-well, MIC); assay type: cell-based; conditions: Klebsiella pneumoniae, ATCC43816; Gram-negative
[7] = assay type: in vitro ADME, rat
Method: as §1, §2

E. coli = experiment: Inhibition of bacterial growth; assay type: cell-based; conditions: not shown
Method: as §3

S. lugdunensis = experiment: MIC testing by broth microdilution; assay type: cell-based
S. xylosus = experiment: MIC testing by broth microdilution; assay type: cell-based; conditions: Staphylococcus xylosus; BK strain 26203
S. capitis = experiment: MIC testing by broth microdilution; assay type: cell-based; conditions: Staphylococcus capitis
S. epidermidis = experiment: MIC testing by broth microdilution; assay type: cell-based
Staphylococcus aureus = experiment: MIC testing by broth microdilution; assay type: cell-based
ERβ receptor = test system: ERβ receptor; parameters: method as in PMID 9927308; conditions: cited from earlier work
[8] = test system: A. baumannii (ATCC 17988); experiment: Drug susceptibility assay (96-well, MIC); assay type: cell-based; conditions: Acinetobacter baumannii, ATCC17988; Gram-negative
S. aureus USA300 = conditions: 15 µM, 0-4 h
Method: S. aureus USA300 was inoculated 1:100 into LB medium from overnight cultures. Cells were grown to the early exponential phase and back diluted to OD600 0.1. […] Samples were serially diluted and plated on LB agar. Colonies were enumerated after overnight incubation at 37°C. Time-kill experiments were performed with n = 4 biological replicates.

[9] = male, C57B6, mouse, in vivo, ip, 10 mg/kg, 7 h
S. warneri = experiment: MIC testing by broth microdilution; assay type: cell-based
[10] = test system: P. aeruginosa (ATCC BAA47); experiment: Drug susceptibility assay (96-well, MIC); assay type: cell-based; conditions: Pseudomonas aeruginosa, ATCCBAA47; Gram-negative
[11] = test system: M. tuberculosis H37Rv (ATTC 27294); experiment: Drug susceptibility assay (96-well, MIC); assay type: cell-based; conditions: Mycobacterium tuberculosis, Acid-fast
S. sciuri = experiment: MIC testing by broth microdilution; assay type: cell-based
S. lentus = experiment: MIC testing by broth microdilution; assay type: cell-based

Method for Vero cells (ATCC CCL-81): Compounds were tested for cytotoxicity against Vero cells using the CellTiter 96 AQueous One Solution Assay kit (Promega). Vero cells were seeded in 96-well plates at a density of 2 × 10^4 cells per well, and the plates were incubated for 4 h at 37°C to allow attachments of the Vero cells. Chemical compounds being tested were then added to the wells starting from a final concentration of 50 µg/mL and making 12 1:2 dilutions. Cells were incubated for 72 h at 37°C, after which 20 µL of freshly prepared MTS:PMS reagents were added to each well. Plates were incubated for 2 h and then read at an absorbance of 490 nm.

Compound: CC[C@@H]1Cc2cc(O)ccc2C2=C1c1ccc(O)cc1C[C@H]2CC [MGC-10]
- AUC(0-inf) (in vivo): 171 µg·h/mL
- half-life (in vivo): 2.1 h
- concentration at 7 h (in vivo; Clast): 733 ng/mL
- dermonecrosis as a result of S. aureus infection (area over time) ([1]; 5 days, vs untreated control (ointment without drug)): able to reduce dermonecrosis
- bacterial burden in punch biopsies ([1]; day 5, vs untreated control): not statistically significant (P = 0.0575)
- MIC (S. haemolyticus): 12 µM (≈ 3.85 µg/mL)
- MIC (S. caprae): 6 µM (≈ 1.92 µg/mL)
- complete inhibition of translation [2]: complete inhibition was not achieved
- MIC90 [3]: 6 µM (≈ 1.92 µg/mL)
- MIC (S. saprophyticus; BK strain 26195): 6 µM (≈ 1.92 µg/mL)
- MIC (S. saprophyticus; Staphylococcus saprophyticus, BK strain 26194): 6 µM (≈ 1.92 µg/mL)
- depletion of the compound in liver microsomes [4]: no depletion
- MIC (S. cohnii): 12 µM (≈ 3.85 µg/mL)
- MIC (S. gallinarum): 12 µM (≈ 3.85 µg/mL)
- MIC (S. aureus; ATCC25923): 6.25 µM (≈ 2 µg/mL)
- MIC (S. aureus; ATCC35556): 6.25 µM (≈ 2 µg/mL)
- MIC (S. aureus; ATCC 43300 / MRSA, S. aureus mecA + (MRSA) (ATCC 43300), Gram-positive, read-out: MIC): 6.25 µM
- in-life observations [5]: exhibited hunched postures; and were lethargic
- MIC (S. simulans): 6 µM (≈ 1.92 µg/mL)
- MIC (S. pseudintermedius; BK strain 24474): 6 µM (≈ 1.92 µg/mL)
- MIC (S. pseudintermedius; BK strain 25938): 6 µM (≈ 1.92 µg/mL)
- MIC (S. pseudintermedius; BK strain 26190): 12 µM (≈ 3.85 µg/mL)
- inhibition at 6 µM (B. subtilis): 97%
- MIC [6]: > 100 µM
- cytotoxicity against Vero mammalian cells (Vero cells (ATCC CCL-81)): no cytotoxicity
- MIC (cytotoxicity, Vero) (Vero cells (ATCC CCL-81); African green monkey, 72 h): 50 µM (≈ 16 µg/mL)
- depletion of the compound in liver microsomes [7]: no depletion
- inhibition of growth of E. coli (E. coli): No inhibition
- MIC (S. lugdunensis; BK strain 28088, Methicillin R): 6 µM (≈ 1.92 µg/mL)
- MIC (S. lugdunensis; Staphylococcus lugdunensis, BK strain 26192): 6 µM (≈ 1.92 µg/mL)
- MIC (S. xylosus): 6 µM (≈ 1.92 µg/mL)
- MIC (S. capitis; BK strain 22034): 12 µM (≈ 3.85 µg/mL)
- MIC (S. capitis; BK strain 24463): 6 µM (≈ 1.92 µg/mL)
- MIC (S. epidermidis; BK strain 26974, Methicillin R): 6 µM (≈ 1.92 µg/mL)
- MIC (S. epidermidis; Staphylococcus epidermidis, BK strain 21192, Methicillin R): 6 µM (≈ 1.92 µg/mL)
- MIC (Staphylococcus aureus; MRSA / USA300, BK strain 19494, CC 8, USA300, MRSA): 6 µM (≈ 1.92 µg/mL)
- MIC (Staphylococcus aureus; MRSA / USA300 / USA500, MRSA clinical isolates typed as USA300 and USA500): 6 µM (≈ 1.92 µg/mL)
- MIC (Staphylococcus aureus; MRSA / USA400, BK strain 19484, CC 1, USA400, MRSA): 6 µM (≈ 1.92 µg/mL)
- MIC (Staphylococcus aureus; MRSA / USA600, BK strain 18519, CC 45, USA600, MRSA): 6 µM (≈ 1.92 µg/mL)
- MIC (Staphylococcus aureus; MRSA / USA800, BK strain 18267, CC 5, USA800, MRSA): 6 µM (≈ 1.92 µg/mL)
- MIC (Staphylococcus aureus; MRSA, BK strain 13180, CC 8, Trimethoprim-sulfamethoxazole resistant): 6 µM (≈ 1.92 µg/mL)
- MIC (Staphylococcus aureus; MRSA, BK strain 21209, CC 8, Linezolid resistant): 6 µM (≈ 1.92 µg/mL)
- MIC (Staphylococcus aureus; MRSA, BK strain 21346, CC 5, Tigecycline resistant): 6 µM (≈ 1.92 µg/mL)
- MIC (Staphylococcus aureus; MRSA, BK strain 21347, CC 22, Linezolid resistant): 6 µM (≈ 1.92 µg/mL)
- MIC (Staphylococcus aureus; MRSA, BK strain 22522, CC 5, Vancomycin resistant (vanA+), MRSA): 6 µM (≈ 1.92 µg/mL)
- MIC (Staphylococcus aureus; MRSA, BK strain 22523, CC 5, Vancomycin resistant (vanA+), MRSA): 6 µM (≈ 1.92 µg/mL)
- MIC (Staphylococcus aureus; MRSA, BK strain 23735, CC 125, BORSA): 6 µM (≈ 1.92 µg/mL)
- MIC (Staphylococcus aureus; MRSA, BK strain 23736, CC 1, BORSA): 6 µM (≈ 1.92 µg/mL)
- MIC (Staphylococcus aureus; MRSA, BK strain 26638, CC 398, LA-MRSA): 6 µM (≈ 1.92 µg/mL)
- MIC (Staphylococcus aureus; MRSA, BK strain 46376, CC 8, hVISA): 6 µM (≈ 1.92 µg/mL)
- MIC (Staphylococcus aureus; MRSA, BK strain 46377, CC 8, hVISA): 6 µM (≈ 1.92 µg/mL)
- MIC (Staphylococcus aureus; MRSA, BK strain 58711, CC 5, Rifampin resistant): 6 µM (≈ 1.92 µg/mL)
- MIC (Staphylococcus aureus; MRSA, BK strain 59775, CC 8, Trimethoprim-sulfamethoxazole resistant): 6 µM (≈ 1.92 µg/mL)
- MIC (Staphylococcus aureus; MRSA, BK strain 61828, CC 398, MRSA): 6 µM (≈ 1.92 µg/mL)
- MIC (Staphylococcus aureus; MRSA, BK strain 62861, CC 45, MRSA): 6 µM (≈ 1.92 µg/mL)
- MIC (Staphylococcus aureus; MRSA, BK strain 62874, CC 59, MRSA): 6 µM (≈ 1.92 µg/mL)
- MIC (Staphylococcus aureus; MRSA, BK strain 62961, CC 5, MRSA): 6 µM (≈ 1.92 µg/mL)
- MIC (Staphylococcus aureus; MRSA, BK strain 62969, CC 5, MRSA): 6 µM (≈ 1.92 µg/mL)
- MIC (Staphylococcus aureus; MRSA, BK strain 62976, CC 398, MRSA): 6 µM (≈ 1.92 µg/mL)
- MIC (Staphylococcus aureus; MRSA, BK strain 63193, CC 30, MRSA): 6 µM (≈ 1.92 µg/mL)
- MIC (Staphylococcus aureus; MRSA, BK strain 63218, CC 8, MRSA): 6 µM (≈ 1.92 µg/mL)
- MIC (Staphylococcus aureus; MRSA, BK strain 63341, CC 8, MRSA): 6 µM (≈ 1.92 µg/mL)
- MIC (Staphylococcus aureus; MRSA, BK strain 63738, CC 59, MRSA): 6 µM (≈ 1.92 µg/mL)
- MIC (Staphylococcus aureus; MRSA, BK strain 63765, CC 30, MRSA): 12 µM (≈ 3.85 µg/mL)
- MIC (Staphylococcus aureus; MRSA, BK strain 63776, CC 398, MRSA): 6 µM (≈ 1.92 µg/mL)
- MIC (Staphylococcus aureus; MRSA, BK strain 63777, CC 45, MRSA): 6 µM (≈ 1.92 µg/mL)
- MIC (Staphylococcus aureus; MRSA, methicillin-resistant Staphylococcus aureus (MRSA), abstract): 6 µM (≈ 1.92 µg/mL)
- MIC (Staphylococcus aureus; MSSA / NCTC 8325, BK strain 21189, CC 8, MSSA (NCTC 8325)): 12 µM (≈ 3.85 µg/mL)
- MIC (Staphylococcus aureus; MSSA, BK strain 73239, Mupirocin R): 1.5 µM (≈ 0.481 µg/mL)
- MIC (Staphylococcus aureus; MSSA, BK strain 73242, Mupirocin R): 3 µM (≈ 0.961 µg/mL)
- MIC (Staphylococcus aureus; MSSA, BK strain 73250, Mupirocin R): 3 µM (≈ 0.961 µg/mL)
- MIC (Staphylococcus aureus; MSSA, BK strain 73267, Mupirocin R): 6 µM (≈ 1.92 µg/mL)
- MIC (Staphylococcus aureus; MSSA, BK strain 73269, Mupirocin R): 6 µM (≈ 1.92 µg/mL)
- MIC (Staphylococcus aureus; MSSA, BK strain 73336, Mupirocin R): 12 µM (≈ 3.85 µg/mL)
- MIC (Staphylococcus aureus; MSSA, BK strain 73337, Mupirocin R): 3 µM (≈ 0.961 µg/mL)
- MIC90 (Staphylococcus aureus; for 29 of 31 MRSA strains, read-out: MIC90 and MIC50): 6 µM (≈ 1.92 µg/mL)
- MIC (Staphylococcus aureus; laboratory S. aureus strain 8325): 12 µM (≈ 3.85 µg/mL)
- activity at ERβ receptor (ERβ receptor): antagonist
- MIC [8]: > 100 µM
- bactericidal test (CFU/mL over time) (S. aureus USA300): notable bactericidal activity
- Clast [9]: 532 ng/mL
- MIC (S. warneri; BK strain 26202): 6 µM (≈ 1.92 µg/mL)
- MIC (S. warneri; Staphylococcus warneri, BK strain 24473): 6 µM (≈ 1.92 µg/mL)
- MIC [10]: > 100 µM
- MIC [11]: 100 µM (≈ 32 µg/mL)
- MIC (S. sciuri; BK strain 26200): 6 µM (≈ 1.92 µg/mL)
- MIC (S. sciuri; Mammaliicoccus sciuri, BK strain 26199): 6 µM (≈ 1.92 µg/mL)
- MIC (S. lentus; BK strain 26639, Methicillin R): 6 µM (≈ 1.92 µg/mL)
- MIC (S. lentus; Mammaliicoccus lentus, BK strain 26191): 6 µM (≈ 1.92 µg/mL)
